Measurements from the NIST ThermoML archive (doi:10.1021/je900730w).
± gives the expanded uncertainty stated by the source.

Legend:
[1] = refractive index (Na D-line) (dimensionless); settings: 293.15 K; 101.33 kPa; Liquid; Standard Abbe refractometry
[2] = for mass density: 293.15 K, 101.33 kPa, Liquid
[3] = Molar enthalpy of transition or fusion; settings: Crystal; DSC

refractive index [1]	Molar enthalpy of transition or fusion [3] [kcal/mol]	Normal melting temperature ([2]; Crystal, DTA) [°C]	mass density [2] [kg/m3]	Structure (SMILES)	mass density ([2]; Vibrating tube method) [kg/m3]
1.4065 ± 0.0007	–	–	–	CCOCCO [2-ethoxyethan-1-ol]	929 ± 1
–	8.91 ± 0.239	214.60 ± 0.5	–	O=P(c1ccccc1)(c1ccccc1)c1cc(O)ccc1O [(2,5-dihydroxyphenyl)diphenyl phosphine oxide]	–
1.3301 ± 0.0007	–	–	792 ± 1	CO [methanol]	–

Further lines, the compound ahead of its results:

Structure (SMILES)	refractive index [1]	Molar enthalpy of transition or fusion [3] [kcal/mol]	Normal melting temperature ([2]; Crystal, DTA) [°C]	mass density [2] [kg/m3]	mass density ([2]; Vibrating tube method) [kg/m3]
CC(C)=O [acetone]	1.359 ± 0.0007	–	–	–	790 ± 1
CCO [ethanol]	1.366 ± 0.0007	–	–	–	790 ± 1
Cc1ccccc1 [toluene]	1.4967 ± 0.0007	–	–	–	866 ± 1
